What was measured:
[1] = molecular target: T1, purified human erythrocyte 20S proteasome (Homo sapiens, UniProt P28072); assay: C-L activity of purified human 20S proteasome; assay type: biochemical
T1 construct: purchased Enzo Life Sciences, Inc; host or cells: human erythrocytes
Protocol: The 20S proteasome assay kit was bought from Enzo Life Sciences, Inc. (Farmingdale, NY 11735, USA). The Km, Vmax values of the purified human erythrocyte 20S proteasome for fluorigenic peptide substrate Z-LLE-AMC are measured according to the instructions provided by the manufacturer. Inactivation of purified human erythrocyte 20S proteasome by fangchinoline was determined by monitoring the hydrolysis of substrate in the presence of different concentrations of fangcinoline. Assays were performed at 37°C in a reaction buffer (50 μL) containing 50 mM Tris/HCL, pH 7.5, 25 mM KCL, 10 mM NaCL, 1 mM MgCL2, 0.1 μg 20S proteasome and Z-LLE-AMC. Reactions were allowed to proceed for 120 min, and fluorescence data were collected every 1 min, and then plotted as a function of time. The apparent dissociation constant, Ki ^app, was determined by non-linear least-fit of the fractional velocity, vi/v0, as a function of [I], where vi is the steady state residual activity of the enzyme in the presence of inhibitor (I) and v0 is the initial velocity in the absence of inhibitor ( Vi/V0=1/1+[I]/Kiapp ). The dissociation constant, Ki, was calculated from the apparent dissociation constant, Ki ^app, using the following expression, where [S] is the substrate concentration and Km is the substrate binding constant ( Ki=Kiapp/1+[S]/Km ).

[2] = system: T2, proteasome of PC-3 tumor xenografts; assay: Proteasome activities of tumor xenografts; assay type: in vivo, nude mice
T2 construct: from tissue; host or cells: PC-3 tumour xenografts from Balb/c-nu-nu mice, homogenate supernatant
Protocol: Cells were treated with either solvent control (0.1% DMSO), fangchinoline at different concentrations, or 1 μM carfilzomib (positive control) for 24 h at 37 °C. The enzymatic activities of cellular proteasome in cell lysate were measured as reported in our previous paper. Briefly, cells were harvested, washed with PBS and then lysed in proteasome activity assay buffer for 30 min at 4°C. The homogenate was then centrifuged at 12000 × g for 30 min at 4°C. The supernatant was collected as whole cell extract and the protein content in the supernatant was measured with the Bradford reagent. Catalytic activities of cellular proteasome were assayed by adding whole cell extract (containing 30 μg protein) to 100 μL of proteasome activity assay buffer containing 50 μM fluorogenic peptide substrates such as Z-LLE-AMC for detecting C-L activity, Z-ARR-AMC for detecting T-L activity or Suc-LLVY-AMC for detecting CT-L activity, respectively. The release of fluorogenic AMC from the peptide substrates was then measured as described above.
Male nude immunodeficient mice Balb/c-nu-nu, aged 4 weeks, were purchased from Shanghai Experimental Animal Center. […] Tumor sizes were measured every 4 days using calipers and their volumes were calculated using a standard formula: width^2×length/2. […] Body weight was measured daily. […]

[3] = system: ubiquitinated proteins, IκB-α, Bax, p27 in PC-3 cells; assay: Western blotting of ubiquitinated proteins and proteasome substrates in PC-3 cells; assay type: cell-based, human
Protocol: Western blotting assay was conducted as described before. Briefly, an aliquot of protein (100 μg) sample was loaded onto a 12% SDS gel, separated electrophoretically, and transferred to a Nitrocellulose membrane (Bio-Rad). After the membrane was incubated with 10 mM TBS with […] and 5% dehydrated skim milk to block nonspecific protein binding, the membrane was incubated with primary antibodies overnight at 4°C. The primary antibodies (all from Cell Signaling Technology) used were rabbit polyclonal antibody against human IκB-α (#4812, 1:400), Bax (#2772, 1:400), proteasome β1 subunit (PSMB6) (#13267, 1:500), β-actin (#4967, 1:400) and mouse monoclonal antibody against human p27 Kip1 (#3688, 1:400) or ubiquitin (#3936, 1:1000). After TBS washes, blots were then incubated with secondary antibody for 2 h at room temperature at a 1:1000 dilution and then visualized using chemiluminescence (Pierce Biotechnology, Rockford, IL, USA). The secondary antibodies used were HRP-linked goat anti-rabbit IgG (#7074) and HRP-linked horse anti-mouse IgG (#7076), both from Cell Signaling Technology.

COc1ccc2cc1Oc1ccc(cc1)C[C@H]1c3cc(c(OC)cc3CCN1C)Oc1c(O)c(OC)cc3c1[C@H](C2)N(C)CC3 [fangchinoline]
Hydrolysis of substrate Z-LLE-AMC by 20S proteasome ([1]; 500 μM fangchinoline, 75 μM Z-LLE-AMC): partly inhibited
Ki ([1]; substrate Z-LLE-AMC, 37°C): 357 ± 30.6 µM
Significance of decrease in proteasome activity of tumor xenografts ([2]; 50 mg/kg group): significant
Proteasome activities of tumor xenografts compared with vehicle control ([2]; fangchinoline-treated groups (25 and 50 mg/kg)): decreased
Ubiquitinated IκBα (Ub-IκBα), Ub-p27 and Ub-Bax levels [3]: dose-dependently and time-dependently induced increase
Treatment time after which accumulation of ubiquitinated proteins was observed ([3]; 27 μM): 1 h
Lowest dose at which accumulation of ubiquitinated proteins was observed ([3]; 24 h treatment): 8 µM
